Assay: gradient 5% acetonitrile 3 min, to 50% in 2 min, to 85% in 15 min, held 3 min, 100 µL/min
Settings: column: Zorbax Extend-C18 2.1 x 50 mm; eluents: water / acetonitrile, 0.1% formic acid
Method in brief: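 Values are retention times taken from adduct peaks that software picked and an analyst inspected. The pure standards were run as mixtures of ~100 molecules on HPLC linked to a quadrupole time-of-flight mass spectrometer, in positive and negative ionization mode. A Zorbax Extend-C18 column (2.1 × 50 mm, 1.8 μm) was used at 100 μL/min with water and acetonitrile, each including 0.1% formic acid.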

SMILES: Cn1c(CN2CCN(C(=O)Nc3ccc4c(c3)OCO4)CC2)nc2cc(C(=O)N3CCCC3)ccc21
- RP-LC retention time: 607 s

SMILES: CN(C)CCNC(=O)c1ccc(CS(=O)c2ccc(F)cc2)o1 (configuration not stated)
- RP-LC retention time: 569 s

SMILES: CC(=O)Nc1ccc(SCc2nnc(-c3ccccc3)o2)cc1
- RP-LC retention time: 763 s

SMILES: CCc1nc(-c2csc(S(=O)(=O)N3CCCC(C(=O)Nc4ccc(C)c(Cl)c4)C3)c2)no1 (configuration not stated)
- RP-LC retention time: 1180 s

SMILES: CCCn1cc(CCNC(=O)Nc2cccc(Br)c2)c2cccnc21
- RP-LC retention time: 865 s

SMILES: COc1cncc(C(=O)Nc2cc(F)cc(F)c2)c1
- RP-LC retention time: 797 s

SMILES: CCc1ccccc1NC(=O)Cn1ccc2sccc2c1=O
- RP-LC retention time: 742 s

SMILES: CC(C)Oc1ccc(-c2noc(CN3N=NC4C(=O)N(c5ccc(F)cc5)C(=O)C43)n2)cc1 (configuration not stated)
- RP-LC retention time: 1070 s

SMILES: Cc1nn(-c2ccccc2)c(C)c1S(=O)(=O)N1CCC(C(=O)N2CCCC2)CC1
- RP-LC retention time: 786 s

SMILES: O=C(c1ccc(Cl)cc1)N1CCC(N(C(=O)C2CC2)C2CCOCC2)CC1
- RP-LC retention time: 775 s

SMILES: CC1(C)COc2ccc(NC(=O)COc3ccccc3F)cc2NC1=O
- RP-LC retention time: 825 s

SMILES: Cc1ccccc1CN1CCN(c2ccccn2)CC1
- RP-LC retention time: 566 s

SMILES: CC(C)n1c(=O)oc2cc(-c3noc(-c4cccc5[nH]ccc45)n3)ccc21
- RP-LC retention time: 1080 s

SMILES: CCn1cc(CCNC(=O)Cc2ccccc2C)c2cccnc21
- RP-LC retention time: 721 s

SMILES: COC(=O)c1cc2nc(-c3ccc(F)cc3)cc(C)n2n1
- RP-LC retention time: 866 s

SMILES: O=C(Nc1nccnc1C(=O)NCCN1CCOCC1)c1ccccc1
- RP-LC retention time: 569 s

SMILES: CS(=O)(=O)N1CCCCC1C(=O)Nc1nnc(-c2ccco2)o1 (configuration not stated)
- RP-LC retention time: 641 s

SMILES: CCN(CC)C(=O)N1CCC(c2noc(COc3ccc(F)cc3)n2)C1 (configuration not stated)
- RP-LC retention time: 553 s

SMILES: CCOC(=O)CN1N=C(C(=O)N2CCC(C)CC2)S(=O)(=O)c2ccc(C)cc21
- RP-LC retention time: 939 s

SMILES: COc1ccc(-c2noc(-c3nnn4c3COC(c3ccc(Cl)cc3)C4)n2)cc1OC (configuration not stated)
- RP-LC retention time: 1130 s

SMILES: O=C(Cn1c2ccccc2c2ncn(Cc3nc(-c4ccccc4)no3)c(=O)c21)NC1CCCCC1
- RP-LC retention time: 976 s

SMILES: COc1ccc(NC(=O)C2CCN(S(=O)(=O)c3ccc4c(c3)CCCC(=O)N4)CC2)c(OC)c1
- RP-LC retention time: 741 s

SMILES: O=C(NCCc1csc(-c2ccccc2)n1)C1CCN(C(=O)Cc2ccc(Cl)cc2)CC1
- RP-LC retention time: 866 s

SMILES: COc1ccccc1CNc1ccc(-c2nc(-c3ccc(F)cc3)no2)cn1
- RP-LC retention time: 1220 s

SMILES: CC(=O)Oc1ccc(OC(C)=O)c2c1CC1(C)OC1(C)C2 (configuration not stated)
- RP-LC retention time: 703 s

SMILES: O=C(Cc1ccccc1Cl)N1CCc2nc[nH]c2C1
- RP-LC retention time: 584 s

SMILES: COc1ccc(CCC(=O)Nc2c(C(=O)N3CCN(c4ccccn4)CC3)oc3ccccc23)cc1
- RP-LC retention time: 834 s

SMILES: CC1CCc2[nH]nc(C(=O)N3CCCCC3)c2C1 (configuration not stated)
- RP-LC retention time: 757 s

SMILES: CCCCN1C(=O)C(C)(C(=O)NCc2ccc(F)cc2)Oc2cccnc21 (configuration not stated)
- RP-LC retention time: 984 s

SMILES: CC(C)NC(=O)c1ccc2c(c1)CCN2C(=O)C1CCC1
- RP-LC retention time: 764 s

SMILES: Cc1cc(C)c(S(=O)(=O)Nc2ccc(-c3ccc4nnc(C)n4n3)cc2)cc1C
- RP-LC retention time: 741 s

SMILES: CCOCC(=O)N1CCC2(CC1)CC(O)(CC)CCO2 (configuration not stated)
- RP-LC retention time: 614 s

SMILES: COc1ccc2c(c1)C1(CCN(C(=O)CC(C)C)C1)C(=O)N2C (configuration not stated)
- RP-LC retention time: 722 s

SMILES: CCOC(=O)c1c(S(=O)(=O)N2CCC(C(=O)Nc3cccc(C)c3)CC2)c(C)n(C)c1C
- RP-LC retention time: 875 s

SMILES: CNC(=O)CSc1nnc(N2CCN(C(=O)c3cc(-c4ccccc4)on3)CC2)s1
- RP-LC retention time: 674 s

SMILES: CCc1noc(-c2ccc(-n3ncc(C(=O)NC(C)C)c3C)nc2)n1
- RP-LC retention time: 837 s

SMILES: CN(C)c1ccc(C(=O)N2CCCC2COc2ccc(C(=O)N3CCCC3)cc2)cc1 (configuration not stated)
- RP-LC retention time: 748 s

SMILES: Cc1ccc(C2Cn3cnc(C(=O)N4CCC(C(=O)NCc5ccccc5)CC4)c3CO2)cc1 (configuration not stated)
- RP-LC retention time: 796 s

SMILES: CC(C)NC(=O)Cn1c2ccccc2n2c(=O)cc(-c3ccc(F)cc3)nc12
- RP-LC retention time: 702 s

SMILES: CCOc1ccc(C(=O)NCc2noc(-c3ccc(OC)cc3)n2)cc1
- RP-LC retention time: 876 s

SMILES: Cc1nnc(-c2ccc3ccn(CC(=O)N4CCc5ccccc54)c3c2)o1
- RP-LC retention time: 852 s

SMILES: COC(=O)c1ncn2c1C(=O)N(Cc1ccccc1C)C(C)(C(=O)NC1CCCCC1)C2 (configuration not stated)
- RP-LC retention time: 792 s

SMILES: Cc1nnc2cc(N3CCN(Cc4cn[nH]c4-c4cccs4)CC3)cnn12
- RP-LC retention time: 543 s

SMILES: CC(C)CNC(=O)CCc1nc2ccccc2n(CC(=O)NC(C)CCc2ccccc2)c1=O (configuration not stated)
- RP-LC retention time: 869 s

SMILES: O=C(COc1ccccc1F)Nc1nnc(-c2cc(Cl)sc2Cl)o1
- RP-LC retention time: 867 s

SMILES: Cc1ccc2c(c1)C(C)(C)C(=O)N2CC(=O)NCc1cccnc1
- RP-LC retention time: 612 s

SMILES: COC(=O)c1ccccc1NC(=O)CSc1nc(C)cc(N2CCOCC2)n1
- RP-LC retention time: 603 s

SMILES: Cc1nc(-c2ccc(OC3CCN(C(=O)c4[nH]nc5c4COc4ccccc4-5)C3)cc2)no1 (configuration not stated)
- RP-LC retention time: 846 s

SMILES: O=C(Cn1ncc2c(N3CCN(c4ccccn4)CC3)ncnc21)Nc1ccc(OC(F)(F)F)cc1
- RP-LC retention time: 660 s

SMILES: Cn1nc2n(c1=O)CCN(S(=O)(=O)c1ccccc1C(F)(F)F)CC2
- RP-LC retention time: 675 s

SMILES: CSc1nc2ccc3nc(NC(=O)c4cnccn4)sc3c2s1
- RP-LC retention time: 927 s

SMILES: O=C(NC1CCCCCCC1)C1CCN(S(=O)(=O)c2cc(C(=O)N3CCCC3)cs2)CC1
- RP-LC retention time: 902 s

SMILES: C=CC(=O)Nc1cc2c(Nc3ccc(F)c(Cl)c3)ncnc2cc1OCCCN1CCOCC1
- RP-LC retention time: 630 s

SMILES: CCOC(=O)C1CCN(C(=O)c2cn3c(n2)CN(CC)CC3)CC1
- RP-LC retention time: 575 s

SMILES: Cc1ccc(NC(=O)C2CCc3nc(N4CCCCC4)ncc3C2)cc1 (configuration not stated)
- RP-LC retention time: 822 s

SMILES: CCOc1nccnc1N1CCC(N(C)C(=O)c2ccc(C)nc2)C1 (configuration not stated)
- RP-LC retention time: 597 s

SMILES: Cc1ccc(C)c(NC(=O)N2C[C@@H](F)C[C@H]2C(=O)N2CCc3ccccc3C2)c1
- RP-LC retention time: 836 s

SMILES: O=C(c1nc(CS(=O)(=O)c2ccccc2)no1)N1CCN(c2ccccn2)CC1
- RP-LC retention time: 616 s

SMILES: CN1C(=O)c2cccnc2Sc2cc(NC(=O)c3cccc(Br)c3)ccc21
- RP-LC retention time: 876 s

SMILES: O=C(NCc1ccco1)c1ccc2ccnc(N3CCN(c4ccc(F)cc4)CC3)c2c1
- RP-LC retention time: 782 s

SMILES: COc1cccc(N2CCN(c3ccc(S(=O)(=O)C(C)C)nn3)CC2)c1
- RP-LC retention time: 847 s

SMILES: CCSc1nnc(-c2nn(C)c3c2CN(S(=O)(=O)c2cc(F)ccc2C)CC3)n1CC
- RP-LC retention time: 988 s

SMILES: Fc1ccc(-c2ccc(CNc3ncn[nH]3)o2)cc1Cl
- RP-LC retention time: 692 s

SMILES: O=C(Cn1c(=O)c2cc(C3CC3)nn2c2ncccc21)N1CCCc2ccccc21
- RP-LC retention time: 832 s

SMILES: Cn1cnc(S(=O)(=O)N2CCC(C(=O)NCc3cccs3)CC2)c1
- RP-LC retention time: 640 s

SMILES: CCN(Cc1ccncc1)C1CN(C(=O)c2ccc3ncccc3c2)C1
- RP-LC retention time: 560 s

SMILES: CCc1nc2cc3c(cc2n1CC(=O)NC(C)c1ccccc1)OCCO3 (configuration not stated)
- RP-LC retention time: 651 s

Source: the METLIN SMRT retention time set (Domingo-Almenara et al. 2019)
